Assay results from patent US10314771B2, “Methods and compositions for preventing and treating tooth erosion” (University of Tennessee Research Foundation, priority 2013, dated 2019).

Experimental: The capacity of sodium bicarbonate to neutralize acid saliva was assessed. A pool of saliva was collected from 5 individuals, and the normal pH of the saliva was measured before brushing or eating. […] In order to simulate an acidic challenge, the pH of the saliva was adjusted to 2.5 with 0.01M HCl.
The saliva was titrated with a 3M sodium bicarbonate solution and measured the volume of solution necessary to neutralize the saliva to a pH of 6.8.

O=C([O-])O.[Na+] [Sodium Bicarbonate, sodium bicarbonate]
volume needed to neutralize the acidic saliva to a pH of 7.0 (3M solution): 2.0 mLs | rinsing time sufficient to help neutralize the saliva (rinsing with a sodium bicarbonate solution): 30 s
